US20250025484A1, “POLYMERSOME NANOPARTICLES EXHAUSTING INTRACELLUAR AMINO ACID FOR CANCER THERAPY AND METHODS THEREOF” (THE UNIVERSITY OF HONG KONG, priority 2023, published 2025)

Experiments:
Assay type in all cases: cell-based, human
[1] = system: K48-polyubiquitinated proteins in A549 cells; test: Western blot of K48-polyubiquitinated proteins; conditions: EBSS plus BTZ (10 μM), 2 h or 24 h
Description: The cells were plated in 12-well plates at 1×10^5 density and incubated for 24 h. […] Total protein concentration was determined by pierce BCA protein assay kit (Thermo Fischer Scientific, #23225). Equal amounts of proteins were loaded. SDS-PAGE electrophoresis was utilized to separate proteins, which were subsequently transferred to a nitrocellulose membrane through the wet transfer system. The membranes were blocked with 5% BSA in TBST at room temperature for 1 h and incubated with indicated primary antibodies overnight under 4° C. After washed with TBST, the blots were incubated with secondary antibodies for 1 h at room temperature. After washed with TBST three times, the proteins blots were visualized by Clarity Western ECL Substrate (BioRad) and captured by ChemiDoc Imaging System (BioRad). The following antibodies were used: K48-polyubiquitinated proteins (Cell signaling technology, #8081), p-S6K (Cell signaling technology, #9234), S6K (Cell signaling technology, #2708), mTOR (Cell signaling technology, #2983), β-Actin (Cell signaling technology, #4967), SQSTM1 (Abcam, ab91526), HRP-conjugated secondary antibody (Abcam, ab6789), HRP-conjugated secondary antibody (Abcam, ab6721).

[2] = system: proteasome; test: Proteasome activity probe (Me4BodipyFL-Ahx3Leu3VS) flow cytometry; conditions: A549 cells, EBSS plus BTZ (10 μM), 4 h, vs EBSS
Description: The cells were seeded in 12-well plates at 1×10^5 density. Unless explained, the cells were incubated with FITC-BSA (0.2 mg/mL), DQ-BSA (10 μg/mL), or Me4BodipyFL-Ahx3Leu3VS (1 μM) for 4 h for protein internalization, extracellular protein degradation, and proteasome activity analysis, respectively. TMR-Dextran (0.125 mg/mL) was applied for 1 h as a macropinocytosis marker. After washing with PBS three times, the cells were harvested and analyzed by Agilent NovoCyte Quanteon analyzer.

[3] = system: A549 cells; test: DQ-BSA internalization and degradation analysis
Description: For in vitro fluorescent imaging detection, the cells were seeded on Nunc glass bottom confocal dishes (Thermo Fischer Scientific, USA) for 24 h. […] TMR-Dextran (0.125 mg/mL) was applied for 1 h as a macropinocytosis marker. Subsequently, after washed with PBS three times, the cells were fixed in 3.7% paraformaldehyde solution in PBS for 10 min, followed by washing with PBS three times and staining with DAPI according to the protocol (Thermo Fischer Scientific, D1306). After washing with PBS three times, the cells were mounted with SlowFade Diamond Antifade Mountant (Thermo Fischer Scientific, S36963). The in vivo TUNEL assay was conducted using the one-step TUNEL assay kit ([…], Beyotime, China). The Zeiss LSM 900 inverted confocal microscope equipped with 10×0.45 NA, 20×0.8 NA and 40×1.4 NA lens was employed to analyze intracellular fluorescent signals. The same exposure settings were used across all conditions in each individual experiment. The cells were seeded in 12-well plates at 1×10^5 density. Unless explained, the cells were incubated with FITC-BSA (0.2 mg/mL), DQ-BSA (10 μg/mL), or Me4BodipyFL-Ahx3Leu3VS (1 μM) for 4 h for protein internalization, extracellular protein degradation, and proteasome activity analysis, respectively. […] After washing with PBS three times, the cells were harvested and analyzed by Agilent NovoCyte Quanteon analyzer.

[4] = system: A549 cells; test: Cytotoxicity assay (MTT); conditions: BTZ (20 μM), EBSS vs DMEM, 24 h
Description: The cells were seeded in 96-well plates and cultured for 24 h. To investigate the influence of starvation on BTZ treatment, the cells were incubated with BTZ (20 μM) or DMSO, in complete DMEM or EBSS medium for 24 h. To investigate the combination effect of EIPA and BTZ, the cells were treated with a series of concentration of EIPA and BTZ in EBSS (plus 3% BSA) medium for 24 h. 10 μL of MTT (5 mg/mL) were added into each well and incubated for 2-4 h. Then the supernatant was changed with 100 μL DMSO to dissolve the precipitate. Subsequently, the absorbance of the solution at 570 nm and 630 nm was measured by a microplate reader (SpectraMax M4, Molecular Devices LLC, San Jose, CA). The cell viability was calculated by OD570-OD630 and normalized to DMSO control group.

[5] = system: A549 cells; test: FITC-BSA protein internalization
Description: (§1) For in vitro fluorescent imaging detection, the cells were seeded on Nunc glass bottom confocal dishes (Thermo Fischer Scientific, USA) for 24 h. Unless explained, the cells were incubated with FITC-BSA (0.2 mg/mL), BSA-AF647 (0.05 mg/mL), or DQ-BSA (10 μg/mL) for 4 h for protein internalization and extracellular protein degradation analysis, respectively. TMR-Dextran (0.125 mg/mL) was applied for 1 h as a macropinocytosis marker. Subsequently, after washed with PBS three times, the cells were fixed in 3.7% paraformaldehyde solution in PBS for 10 min, followed by washing with PBS three times and staining with DAPI according to the protocol (Thermo Fischer Scientific, D1306). After washing with PBS three times, the cells were mounted with SlowFade Diamond Antifade Mountant (Thermo Fischer Scientific, S36963). The in vivo TUNEL assay was conducted using the one-step TUNEL assay kit (C1088, Beyotime, China). The Zeiss LSM 900 inverted confocal microscope equipped with 10×0.45 NA, 20×0.8 NA and 40×1.4 NA lens was employed to analyze intracellular fluorescent signals. The same exposure settings were used across all conditions in each individual experiment.
(§2) The cells were seeded in 12-well plates at 1×10^5 density. […] After washing with PBS three times, the cells were harvested and analyzed by Agilent NovoCyte Quanteon analyzer.

[6] = system: A549 cells; test: mCherry-GFP-LC3 reporter and BSA-AF647 internalization (CLSM); conditions: EBSS plus BTZ, 4 h, vs starved cells
Description: as §1, with “experiment. […]” for “experiment.”

[7] = system: SQSTM1; test: Western blot of SQSTM1; conditions: A549 cells, EBSS plus BSA medium, 4 h
Description: The cells were plated in 12-well plates at 1×10^5 density and incubated for 24 h. Subsequently, the cells received indicated treatments for 4 h and the cells were washed with 1×PBS three times and harvested with RIPA buffer (supplemented with Halt protease and phosphatase inhibitor cocktail, Thermo Fischer Scientific, USA). Total protein concentration was determined by pierce BCA protein assay kit (Thermo Fischer Scientific, #23225). Equal amounts of proteins were loaded. SDS-PAGE electrophoresis was utilized to separate proteins, which were subsequently transferred to a nitrocellulose membrane through the wet transfer system. The membranes were blocked with 5% BSA in TBST at room temperature for 1 h and incubated with indicated primary antibodies overnight under 4° C. After washed with TBST, the blots were incubated with secondary antibodies for 1 h at room temperature. After washed with TBST three times, the proteins blots were visualized by Clarity Western ECL Substrate (BioRad) and captured by ChemiDoc Imaging System (BioRad). […]

[8] = system: A549 cells; test: TMR-Dextran internalization (macropinocytosis marker); conditions: EBSS plus EIPA (50 μM, pretreated 1 h before)
Description: as §1, §2

CC(C)C[C@H](NC(=O)[C@H](Cc1ccccc1)NC(=O)c1cnccn1)B(O)O [BTZ, bortezomib]
level of K48-polyubiquitinated proteins [1]: profound accumulation of polyubiquitinated proteins
fluorescence intensity of proteasome probe (proteasome activity) [2]: remarkably reversed
fluorescence intensity of DQ-BSA (internalized protein degradation) ([3]; A549 cells, EBSS plus BTZ (10 μM), 4 h, vs EBSS): substantially decreased
cell viability [4]: much more significant decrease of cell viability in starved cancer cells
FITC-BSA protein internalization ([5]; EBSS plus BTZ, 4 h): further increased protein internalization
LC3 puncta (autophagy flux) [6]: further enhanced
percentage of BSA-AF647 colocalized with LC3 puncta [6]: increased the percentage of BSA-AF647 colocalized with LC3 puncta
SQSTM1 expression level [7]: exacerbated starvation-induced SQSTM1 decrease

CCN(c1nc(N)c(C(=O)N=C(N)N)nc1Cl)C(C)C [EIPA, 5-(n-ethyl-n-isopropyl)-amiloride]
fluorescence intensity of DQ-BSA (intracellular protein degradation) ([3]; A549 cells pre-incubated with DQ-BSA 1 h, then EBSS with 3% BSA plus EIPA 3 h, vs starvation group): further increased the fluorescence intensity of DQ-BSA
TMR-Dextran internalization (macropinocytosis) [8]: inhibited
starvation-amplified FITC-BSA uptake ([5]; EBSS plus EIPA (50 μM, pretreated 1 h before), 1 h): notably blocked
